Experimental data: patent publication US7456271B2, “Glutamate 2,3-aminomutases and methods of use thereof” (Wisconsin Alumni Research Foundation, priority 2005, dated 2008)
Like-named read-outs stand apart in the source and are kept apart here.

Assays:
[1] = molecular target: T1, C. difficile Glutamate 2,3-aminomutase (Clostridioides difficile, UniProt Q185C5, V264I); format: biochemical, Clostridium difficile; details: for rate of reaction to the other isomer: 20 mM substrate; for Specific Activity: substrate 20 mM
T1 construct: made in house; host or cells: E. coli BL21(DE3) CodonPlus RILP, pET23a(+)
Experimental: Glutamate 2,3-aminomutase Activity Measurements. Enzyme assays were conducted in an anaerobic chamber (Coy, Grass Lake, Mich.) at 37° C. […] At various time intervals (0-3 min), 45 μl of reaction mix was added to 15 μl of 2N perchloric acid to stop the reaction. Samples were centrifuged at 14,000×g for 10 min. The supernatant fluids were treated with PITC according to the method of Heinrikson and Meredith (20). Samples were dissolved in 100 μl of coupling buffer, concentrated to dryness by vacuum centrifugation, redissolved in 400 μl coupling buffer plus 20 μl of PITC, allowed to react for 30 min at room temperature, concentrated to dryness as above, and dissolved in either 0.5 or 1.0 ml water prior to injection (50 or 100 μl). The PITC derivative of L-glutamate was separated from the β-glutamate derivative by HPLC chromatography (20) using a C18 reverse phase column (Phenomenex Gemini 5μ, 4.6 mm×25 cm, #G-4435-E0), flow rate 1 ml/min, room temperature. The PITC-amino acids were separated with a linear gradient composed of 0.05 M ammonium acetate in water (buffer A) and 0.1 M ammonium acetate in 44% water, 46% acetonitrile, and 10% methanol (buffer B). The gradient established was 0-10% Buffer B in 20 min, 10-100% Buffer B in 10 min. […] Concentrations of L-glutamate or β-glutamate were measured using an amino acid standard solution (Pierce Chemical Co., #20088). For enzyme activity measurements at selected time points, the peak area of either L-glutamate or β-glutamate was divided by the total peak area (L-glutamate+β-glutamate) and multiplied by the starting concentration of either L-glutamate or β-glutamate to obtain molar concentrations. Enzyme kinetic parameters were determined by varying the concentration of L-glutamate (0.6-20 mM). Two separate analyses were conducted at two concentrations of enzyme (0.75 and 0.15 μM—subunit) with remaining conditions as stated above. Initial velocities were measured and used to calculate kinetic parameters (Vmax and Km) by the nonlinear least squares curve fitting method of Cleland (25).

[2] = molecular target: T1, C. difficile Glutamate 2,3-aminomutase; format: biochemical, Clostridium difficile; details: for Keq: 24° C.
Experimental: Measurement of the Equilibrium Constant for Conversion of L-Glutamate into β-Glutamate Catalyzed by Glutamate 2,3-aminomutase. Assays were conducted as previously described (see activity measurements above) except at 24° C. […] Initial enzyme concentrations were either 0.75 μM or 0.15 μM. After approximately 4 hours at 24° C., an additional aliquot of enzyme was added to make the final enzyme concentration either 1.5 μM or 0.3 μM, and the reaction was allowed to proceed for an additional 16 hours at 24° C. The reaction was stopped with 0.55 N perchloric acid, and the amino acids were derivatized with PITC as previously described. Following HPLC separation of the PITC derivatized L-glutamate and β-glutamate, the simple ratio of the peak areas of the two compounds was calculated based on the equivalent extinction coefficient of the two compounds (20).

Structure (SMILES): N[C@@H](CCC(=O)O)C(=O)O [L-Glutamate, L-glutamate]
- rate of reaction to the other isomer [1]: 5.9 μmoles min^−1· (mg protein)^−1
- maximum velocity ([1]; 37° C., forward direction): 7 μmoles of β-glutamate min^−1· (mg protein)^−1
- Vmax ([1]; Assay 1, 37° C.): 7.5 ± 0.18 μmoles · β-Glutamate min^−1 (mg protein)^−1
- kcat ([1]; Assay 1, 37° C.): 6.2 s⁻¹
- Km ([1]; Assay 1, 37° C., read-out: Km (L-Glutamate)): 2200 ± 160 µM
- Vmax ([1]; Assay 2, 37° C.): 7.3 ± 0.19 μmoles · β-Glutamate min^−1 (mg protein)^−1
- kcat ([1]; Assay 2, 37° C.): 6.0 s⁻¹
- Km ([1]; Assay 2, 37° C., read-out: Km (L-Glutamate)): 2300 ± 180 µM
- kcat ([1]; conditions of Table 3): 6 s⁻¹
- Km ([1]; forward direction, conditions of Table 3, read-out: Michaelis constant (Km)): 2000 µM
- Specific Activity ([1]; SAM +, Dithionite +, 37° C.): 5.9 μmoles · min^−1 · mg^−1 Protein
- Specific Activity ([1]; SAM +, Dithionite −, 37° C.): 0.16 μmoles · min^−1 · mg^−1 Protein
- Specific Activity ([1]; SAM −, Dithionite +, 37° C.): <0.01 μmoles · min^−1 · mg^−1 Protein
- Keq ([2]; [L-Glutamate] start 0.6 mM, [Enzyme] 1.5 μM (subunit)): 14.2
- Keq ([2]; [L-Glutamate] start 0.8 mM, [Enzyme] 0.30 μM (subunit)): 14.8
- Keq ([2]; [L-Glutamate] start 1.4 mM, [Enzyme] 1.5 μM (subunit)): 15.2
- Keq ([2]; [L-Glutamate] start 1.6 mM, [Enzyme] 0.30 μM (subunit)): 15.7
- Keq ([2]; [L-Glutamate] start 3.1 mM, [Enzyme] 1.5 μM (subunit)): 16.0
- Keq ([2]; [L-Glutamate] start 3.2 mM, [Enzyme] 0.30 μM (subunit)): 15.9
- Keq ([2]; [L-Glutamate] start 6.4 mM, [Enzyme] 0.30 μM (subunit)): 15.9
- Keq ([2]; [L-Glutamate] start 6.6 mM, [Enzyme] 1.5 μM (subunit)): 15.6
- Keq ([2]; [L-Glutamate] start 12.4 mM, [Enzyme] 1.5 μM (subunit)): 15.6
- Keq ([2]; [L-Glutamate] start 12.9 mM, [Enzyme] 0.30 μM (subunit)): 16.3
- Keq ([2]; [L-Glutamate] start 22.1 mM, [Enzyme] 0.30 μM (subunit)): 15.5
- Keq ([2]; [L-Glutamate] start 22.9 mM, [Enzyme] 1.5 μM (subunit)): 15.3

Structure (SMILES): NCCCC[C@H](N)C(=O)O [L-lysine, reference compound]
- conversion to β-lysine by glutamate 2,3-aminomutase ([1]; substrate specificity): does not catalyze

Structure (SMILES): O=S([O-])S(=O)[O-].[Na+].[Na+] [dithionite, sodium dithionite, reference compound]
- effect of excess on enzyme activity ([1]; excess, progressive loss of activity over time at >70 μM (FIG. 3)): inhibitory

Structure (SMILES): NC(CC(=O)O)CC(=O)O [β-Glutamate, β-glutamate]
- rate of reaction to the other isomer [1]: 2.3 μmoles min^−1· (mg protein)^−1
- Specific Activity ([1]; SAM +, Dithionite +, 37° C.): 2.3 μmoles · min^−1 · mg^−1 Protein
- Keq ([2]; [β-Glutamate] start 0.6 mM, [Enzyme] 0.30 μM (subunit)): 15.6
- Keq ([2]; [β-Glutamate] start 0.6 mM, [Enzyme] 1.5 μM (subunit)): 15.3
- Keq ([2]; [β-Glutamate] start 1.4 mM, [Enzyme] 0.30 μM (subunit)): 15.6
- Keq ([2]; [β-Glutamate] start 1.4 mM, [Enzyme] 1.5 μM (subunit)): 15.8
- Keq ([2]; [β-Glutamate] start 3.1 mM, [Enzyme] 0.30 μM (subunit)): 16.2
- Keq ([2]; [β-Glutamate] start 3.1 mM, [Enzyme] 1.5 μM (subunit)): 16.3
- Keq ([2]; [β-Glutamate] start 6.2 mM, [Enzyme] 0.30 μM (subunit)): 15.7
- Keq ([2]; [β-Glutamate] start 6.2 mM, [Enzyme] 1.5 μM (subunit)): 16.4
- Keq ([2]; [β-Glutamate] start 12.3 mM, [Enzyme] 0.30 μM (subunit)): 16.6
- Keq ([2]; [β-Glutamate] start 12.3 mM, [Enzyme] 1.5 μM (subunit)): 16.4
- Keq ([2]; [β-Glutamate] start 22.9 mM, [Enzyme] 1.5 μM (subunit)): 15.9
- Keq ([2]; [β-Glutamate] start 24.3 mM, [Enzyme] 0.30 μM (subunit)): 16.1
- equilibrium ratio of β-Glu to L-glutamate ([2]; same end point from either substrate): approximately 16
